Tested on: expert panelists (oral evaluation)
Experiment: Sensory evaluation: oral evaluation of an aqueous solution by expert panelists
Type: in vivo, human
Conditions: 20 ppm, 7 expert panelists, all seven gave this evaluation
Method: Oral evaluation of an aqueous solution of 2-(2-l-menthyloxyethyl)ethanol obtained in Example 1 in a concentration of 20 ppm was carried out by 7 expert panelists having 5 years or longer experience.

Structure (SMILES): CC(C)[C@@H]1CC[C@@H](C)C[C@H]1OCCOCCO [2-(2-l-menthyloxyethyl)ethanol]
- cool and refreshing feeling quality (oral evaluation): excellent cool and refreshing feeling quality
